# Laboratory results from PubChem BioAssay AID2060909 (Molecular Pharmacology Branch, DTP, NCI, 2025).
# System: 362531-283-R-J2-PDC complex spheroid viability
# Assay: Anticancer human tumor 362531-283-R-J2-PDC patient-derived colon adenocarcinoma cell line growth inhibition [RAS]
# Settings: for IC50: curve of first compound; for viability, T/C: stronger effect = lower value
# Summary of the method: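 Tumour cells grown as complex spheroids with HUVEC endothelial cells and mesenchymal stem cells, treated with RAS pathway inhibitor combinations. Each agent spans half-log steps from near clinical Cmax, or 10 microM where Cmax is unknown.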
# [1] = second compound 0.00316 µM, first compound 0.000949 µM
# [2] = second compound 0.00316 µM, first compound 0.003 µM
# [3] = second compound 0.00316 µM, first compound 0.00949 µM
# [4] = second compound 0.00316 µM, first compound 0.03 µM
# [5] = second compound 0.00316 µM, first compound 0.0949 µM
# [6] = second compound 0.00316 µM, first compound 0.3 µM
# [7] = second compound 0.01 µM, first compound 0.000949 µM
# [8] = second compound 0.01 µM, first compound 0.003 µM
# [9] = second compound 0.01 µM, first compound 0.00949 µM
# [10] = second compound 0.01 µM, first compound 0.03 µM
# [11] = second compound 0.01 µM, first compound 0.0949 µM
# [12] = second compound 0.01 µM, first compound 0.3 µM
# [13] = second compound 0.0316 µM, first compound 0.000949 µM
# [14] = second compound 0.0316 µM, first compound 0.003 µM
# [15] = second compound 0.0316 µM, first compound 0.00949 µM
# [16] = second compound 0.0316 µM, first compound 0.03 µM
# [17] = second compound 0.0316 µM, first compound 0.0949 µM
# [18] = second compound 0.0316 µM, first compound 0.3 µM
# [19] = second compound 0.1 µM, first compound 0.000949 µM
# [20] = second compound 0.1 µM, first compound 0.003 µM
# [21] = second compound 0.1 µM, first compound 0.00949 µM
# [22] = second compound 0.1 µM, first compound 0.03 µM
# [23] = second compound 0.1 µM, first compound 0.0949 µM
# [24] = second compound 0.1 µM, first compound 0.3 µM
# [25] = second compound 0.316 µM, first compound 0.000949 µM
# [26] = second compound 0.316 µM, first compound 0.003 µM
# [27] = second compound 0.316 µM, first compound 0.00949 µM
# [28] = second compound 0.316 µM, first compound 0.03 µM
# [29] = second compound 0.316 µM, first compound 0.0949 µM
# [30] = second compound 0.316 µM, first compound 0.3 µM
# [31] = second compound 1 µM, first compound 0.000949 µM
# [32] = second compound 1 µM, first compound 0.003 µM
# [33] = second compound 1 µM, first compound 0.00949 µM
# [34] = second compound 1 µM, first compound 0.03 µM
# [35] = second compound 1 µM, first compound 0.0949 µM
# [36] = second compound 1 µM, first compound 0.3 µM
# [37] = second compound 0.000949 µM, first compound 0.00316 µM
# [38] = second compound 0.000949 µM, first compound 0.01 µM
# [39] = second compound 0.000949 µM, first compound 0.0316 µM
# [40] = second compound 0.000949 µM, first compound 0.1 µM
# [41] = second compound 0.000949 µM, first compound 0.316 µM
# [42] = second compound 0.000949 µM, first compound 1 µM
# [43] = second compound 0.003 µM, first compound 0.00316 µM
# [44] = second compound 0.003 µM, first compound 0.01 µM
# [45] = second compound 0.003 µM, first compound 0.0316 µM
# [46] = second compound 0.003 µM, first compound 0.1 µM
# [47] = second compound 0.003 µM, first compound 0.316 µM
# [48] = second compound 0.003 µM, first compound 1 µM
# [49] = second compound 0.00949 µM, first compound 0.00316 µM
# [50] = second compound 0.00949 µM, first compound 0.01 µM
# [51] = second compound 0.00949 µM, first compound 0.0316 µM
# [52] = second compound 0.00949 µM, first compound 0.1 µM
# [53] = second compound 0.00949 µM, first compound 0.316 µM
# [54] = second compound 0.00949 µM, first compound 1 µM
# [55] = second compound 0.03 µM, first compound 0.00316 µM
# [56] = second compound 0.03 µM, first compound 0.01 µM
# [57] = second compound 0.03 µM, first compound 0.0316 µM
# [58] = second compound 0.03 µM, first compound 0.1 µM
# [59] = second compound 0.03 µM, first compound 0.316 µM
# [60] = second compound 0.03 µM, first compound 1 µM
# [61] = second compound 0.0949 µM, first compound 0.00316 µM
# [62] = second compound 0.0949 µM, first compound 0.01 µM
# [63] = second compound 0.0949 µM, first compound 0.0316 µM
# [64] = second compound 0.0949 µM, first compound 0.1 µM
# [65] = second compound 0.0949 µM, first compound 0.316 µM
# [66] = second compound 0.0949 µM, first compound 1 µM
# [67] = second compound 0.3 µM, first compound 0.00316 µM
# [68] = second compound 0.3 µM, first compound 0.01 µM
# [69] = second compound 0.3 µM, first compound 0.0316 µM
# [70] = second compound 0.3 µM, first compound 0.1 µM
# [71] = second compound 0.3 µM, first compound 0.316 µM
# [72] = second compound 0.3 µM, first compound 1 µM
# 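Further: spheroids exposed to the agents for 7 days before readout.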
# 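Wherever viability, T/C is given: luminescence viability as percent of DMSO vehicle control wells.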
structure (smiles),measurement,setting,value
CC1(C)CCC(Nc2ncc(C(F)(F)F)c(-c3c[nH]c4c(P(C)(C)=O)c(C#N)ccc34)n2)CN1 (stereo not drawn) + C=CC(=O)N1CCN(c2nc(OCC3CCCN3C)nc3c(F)c(-c4nc(N)cc(C)c4C(F)(F)F)c(Cl)cc23)C(C)C1,IC50,second compound 0.00316 µM,> 300 nM
same,IC50,second compound 0.01 µM,> 300 nM
same,IC50,second compound 0.0316 µM,> 300 nM
same,IC50,second compound 0.1 µM,> 300 nM
same,IC50,second compound 0.316 µM,> 300 nM
same,IC50,second compound 1 µM,> 300 nM
same,"viability, T/C",[1],96.5%
same,"viability, T/C",[2],104%
same,"viability, T/C",[3],103%
same,"viability, T/C",[4],100%
same,"viability, T/C",[5],107%
same,"viability, T/C",[6],99.1%
same,"viability, T/C",[7],103%
same,"viability, T/C",[8],112%
same,"viability, T/C",[9],104%
same,"viability, T/C",[10],98.8%
same,"viability, T/C",[11],109%
same,"viability, T/C",[12],101%
same,"viability, T/C",[13],105%
same,"viability, T/C",[14],105%
same,"viability, T/C",[15],103%
same,"viability, T/C",[16],98.7%
same,"viability, T/C",[17],106%
same,"viability, T/C",[18],96.5%
same,"viability, T/C",[19],102%
same,"viability, T/C",[20],105%
same,"viability, T/C",[21],104%
same,"viability, T/C",[22],103%
same,"viability, T/C",[23],104%
same,"viability, T/C",[24],107%
same,"viability, T/C",[25],109%
same,"viability, T/C",[26],103%
same,"viability, T/C",[27],111%
same,"viability, T/C",[28],98.6%
same,"viability, T/C",[29],112%
same,"viability, T/C",[30],93.5%
same,"viability, T/C",[31],99.2%
same,"viability, T/C",[32],101%
same,"viability, T/C",[33],98.9%
same,"viability, T/C",[34],108%
same,"viability, T/C",[35],113%
same,"viability, T/C",[36],105%
CCc1c2c(nc3ccc(O)cc13)-c1cc3c(c(=O)n1C2)COC(=O)[C@]3(O)CC + C=CC(=O)N1CCN(c2nc(OCC3CCCN3C)nc3c(F)c(-c4nc(N)cc(C)c4C(F)(F)F)c(Cl)cc23)C(C)C1,IC50,second compound 0.00316 µM,24.6 nM
same,IC50,second compound 0.01 µM,24.2 nM
same,IC50,second compound 0.0316 µM,30.2 nM
same,IC50,second compound 0.1 µM,20.5 nM
same,IC50,second compound 0.316 µM,24.4 nM
same,IC50,second compound 1 µM,23.5 nM
same,"viability, T/C",[1],89.9%
same,"viability, T/C",[2],104%
same,"viability, T/C",[3],61.3%
same,"viability, T/C",[4],51.9%
same,"viability, T/C",[5],31.2%
same,"viability, T/C",[6],26.8%
same,"viability, T/C",[7],95.5%
same,"viability, T/C",[8],93.6%
same,"viability, T/C",[9],84.6%
same,"viability, T/C",[10],42.4%
same,"viability, T/C",[11],29.5%
same,"viability, T/C",[12],35.1%
same,"viability, T/C",[13],96.2%
same,"viability, T/C",[14],91.8%
same,"viability, T/C",[15],72.7%
same,"viability, T/C",[16],46.5%
same,"viability, T/C",[17],37.3%
same,"viability, T/C",[18],20.7%
same,"viability, T/C",[19],111%
same,"viability, T/C",[20],101%
same,"viability, T/C",[21],54%
same,"viability, T/C",[22],54%
same,"viability, T/C",[23],33%
same,"viability, T/C",[24],29.1%
same,"viability, T/C",[25],87.2%
same,"viability, T/C",[26],92.4%
same,"viability, T/C",[27],71.5%
same,"viability, T/C",[28],43.8%
same,"viability, T/C",[29],37.1%
same,"viability, T/C",[30],24.5%
same,"viability, T/C",[31],99.6%
same,"viability, T/C",[32],87.1%
same,"viability, T/C",[33],71.9%
same,"viability, T/C",[34],42.3%
same,"viability, T/C",[35],33.3%
same,"viability, T/C",[36],26.3%
C=CC(=O)Nc1cc(Nc2nccc(-c3cn(C)c4ccccc34)n2)c(OC)cc1N(C)CCN(C)C + CCn1c(-c2cc(N3CCN(C)CC3)cnc2C(C)OC)c2c3cc(ccc31)-c1csc(n1)CC(NC(=O)C1CC1C)C(=O)N1CCCC(N1)C(=O)OCC(C)(C)C2,IC50,second compound 0.000949 µM,> 1000 nM
same,IC50,second compound 0.003 µM,> 1000 nM
same,IC50,second compound 0.00949 µM,606 nM
same,IC50,second compound 0.03 µM,464 nM
same,IC50,second compound 0.0949 µM,129 nM
same,IC50,second compound 0.3 µM,< 3.16 nM
same,"viability, T/C",[37],87.5%
same,"viability, T/C",[38],104%
same,"viability, T/C",[39],91.4%
same,"viability, T/C",[40],88%
same,"viability, T/C",[41],98.2%
same,"viability, T/C",[42],65.6%
same,"viability, T/C",[43],97.7%
same,"viability, T/C",[44],94.6%
same,"viability, T/C",[45],94.6%
same,"viability, T/C",[46],89.3%
same,"viability, T/C",[47],91.9%
same,"viability, T/C",[48],63.1%
same,"viability, T/C",[49],93.3%
same,"viability, T/C",[50],115%
same,"viability, T/C",[51],81.1%
same,"viability, T/C",[52],78.9%
same,"viability, T/C",[53],80.4%
same,"viability, T/C",[54],31.4%
same,"viability, T/C",[55],92.2%
same,"viability, T/C",[56],91.8%
same,"viability, T/C",[57],83%
same,"viability, T/C",[58],85.6%
same,"viability, T/C",[59],69.6%
same,"viability, T/C",[60],11.8%
same,"viability, T/C",[61],81.3%
same,"viability, T/C",[62],75.4%
same,"viability, T/C",[63],76.5%
same,"viability, T/C",[64],59.2%
same,"viability, T/C",[65],18.5%
same,"viability, T/C",[66],10.8%
same,"viability, T/C",[67],42.3%
same,"viability, T/C",[68],38.4%
same,"viability, T/C",[69],32.7%
same,"viability, T/C",[70],23%
same,"viability, T/C",[71],10.8%
same,"viability, T/C",[72],8.2%
O=C(c1ccc(F)c(F)c1Nc1ccc(I)cc1F)N1CC(O)([C@@H]2CCCCN2)C1 + CCn1c(-c2cc(N3CCN(C)CC3)cnc2C(C)OC)c2c3cc(ccc31)-c1csc(n1)CC(NC(=O)C1CC1C)C(=O)N1CCCC(N1)C(=O)OCC(C)(C)C2,IC50,second compound 0.000949 µM,523 nM
same,IC50,second compound 0.003 µM,514 nM
same,IC50,second compound 0.00949 µM,454 nM
same,IC50,second compound 0.03 µM,447 nM
same,IC50,second compound 0.0949 µM,72 nM
same,IC50,second compound 0.3 µM,< 3.16 nM
same,"viability, T/C",[37],93%
same,"viability, T/C",[38],105%
same,"viability, T/C",[39],85.6%
same,"viability, T/C",[40],80.9%
same,"viability, T/C",[41],74.8%
same,"viability, T/C",[42],23.1%
same,"viability, T/C",[43],87.8%
same,"viability, T/C",[44],101%
same,"viability, T/C",[45],92%
same,"viability, T/C",[46],76.4%
same,"viability, T/C",[47],76%
same,"viability, T/C",[48],20.3%
same,"viability, T/C",[49],98.4%
same,"viability, T/C",[50],94.7%
same,"viability, T/C",[51],81.4%
same,"viability, T/C",[52],82.6%
same,"viability, T/C",[53],73.6%
same,"viability, T/C",[54],4.71%
same,"viability, T/C",[55],87.4%
same,"viability, T/C",[56],75.7%
same,"viability, T/C",[57],82%
same,"viability, T/C",[58],75.4%
same,"viability, T/C",[59],69.1%
same,"viability, T/C",[60],5.79%
same,"viability, T/C",[61],72.8%
same,"viability, T/C",[62],96.2%
same,"viability, T/C",[63],58.1%
same,"viability, T/C",[64],49.3%
same,"viability, T/C",[65],3.89%
same,"viability, T/C",[66],3.06%
same,"viability, T/C",[67],28.9%
same,"viability, T/C",[68],28.4%
same,"viability, T/C",[69],15.1%
same,"viability, T/C",[70],3.3%
same,"viability, T/C",[71],3.48%
same,"viability, T/C",[72],3.15%
